# Laboratory results published in patent US20140328771A1, “METHOD FOR PRODUCING 3-MENTHOXY PROPANOL AND COMPOSITIONS FOR IMPARTING COOLING SENSATION” (Takasago International Corporation, priority 2011, published 2014).
# Test: Oral sensory evaluation of 50-ppm aqueous solutions by ten special panelists
# Format: in vivo, human
# Conditions: 50-ppm aqueous solution
# Protocol: Using 3-1-menthoxy-1-propanol (1) obtained in Example 1, the mixture (2) of 3-1-menthoxy-1-propanol and 1-1-menthoxy-2-propanol at a weight ratio of 93:7 obtained in Example 2, and 1-1-menthoxy-2-propanol (3) obtained in Example 1, 50-ppm aqueous solutions were prepared.
# The three 50-ppm aqueous solutions were subjected to oral sensory evaluation by ten special panelists with five or more years of experience.
compound,measurement,setting,value
"CC1CCC(C(C)C)C(OCCCO)C1 (centres unmarked) [(1), 3-1-menthoxy-1-propanol]",refreshing sensation,all the ten panelists,marked refreshing sensation
same,strength and persistence of refreshing sensation,seven of the ten panelists,stronger and long-lasting refreshing sensation
